Measured values reported in PMC8061427 (Science translational medicine, 2020).
Where “and” joins values, the source holds several entries; their conditions need not be identical. Identical values can stand only once. Where no end group is shown, it is not given here. The star is where a group is joined. Myristoyl = CCCCCCCCCCCCCC(=O)*

Columns and labels:
mice [1] = test: Mouse tail bleeding time test; settings: cangrelor 30 μg/kg; for effect on mouse tail bleeding time: Fig. 5, M3mP6 HLPN 5 or 10 μmol/kg, high dose aspirin 36 mg/kg i.p., clopidogrel 4 mg/kg, ticagrelor 3 mg/kg
C57BL/6 mice = test: FeCl3-induced mouse carotid artery thrombosis model; assay type: in vivo; settings: for effect on occlusive thrombus formation: 7.5% FeCl3
[2] = no reference given; cited from earlier work
mice [3] = test: Laser-induced cremaster arteriolar thrombosis model in mice; assay type: in vivo, mouse; settings: pre-injected intravenously; M3mP6 HLPN 10 μmol/kg, cangrelor 30 μg/kg; 27 injury sites each
[4] = lipid micellar formulation; cited from earlier work

Which “effect on mouse tail bleeding time” value (mice [1]) does the source give for CC(=O)Oc1ccccc1C(=O)O [aspirin] here?
The value was “increased tail bleeding time”.

What about the “effect on occlusive thrombus formation” value (C57BL/6 mice; Fig. 4B, M3mP6 HLPN 5 μmol/kg, aspirin 36 mg/kg i.p. 1 hour before) of the same compound?
The value was “no obvious effect”.

What does the source list for CSCCNc1nc(SCCC(F)(F)F)nc2c1ncn2[C@@H]1O[C@H](COP(=O)(O)OP(=O)(O)C(Cl)(Cl)P(=O)(O)O)[C@@H](O)[C@H]1O [cangrelor]?
plasma half-life [2]: 3 to 6 min; effect on platelet thrombus formation (mice [3]): potently inhibiting platelet thrombus formation; effect on mouse tail bleeding time (mice [1]): increased tail bleeding time; tail bleeding time (mice [1]; post-injury injection, M3mP6 HLPN 10 μmol/kg): prolonged tail bleeding time; overall effect on occlusive thrombosis (C57BL/6 mice; Fig. 4E, cangrelor 30 μg/kg retro-orbital, M3mP6 HLPN 10 μmol/kg): moderately better than M3mP6 HLPN

For COC(=O)[C@H](c1ccccc1Cl)N1CCc2sccc2C1 [clopidogrel], which “effect on occlusive thrombus formation” value (C57BL/6 mice; Fig. 4C, M3mP6 HLPN 10 μmol/kg, clopidogrel 4 mg/kg oral 2 hours before, ticagrelor 3 mg/kg oral 2 hours before) is on record?
Its value is “delayed occlusive thrombus formation following FeCl3-induced injury but was less effective than M3mP6 HLPN”.

With CCCSc1nc(N[C@@H]2C[C@H]2c2ccc(F)c(F)c2)c2nnn([C@@H]3C[C@H](OCCO)[C@@H](O)[C@H]3O)c2n1 [ticagrelor] as the compound, how does the “effect on mouse tail bleeding time” value (mice [1]) read?
Its value is “increased tail bleeding time”.

For Myristoyl-FEEERA [mP6], which “peptide concentration achieved in lipid micellar suspension” value [4] is on record?
Its value is 1 mM and < 1 mM.
